According to paper PMC10211317, “Identification of ARUK2002821 as an isoform-selective PI5P4Kα inhibitor” (RSC Medicinal Chemistry, 2023):

Assays:
Assay in all cases: Premier Screen kinase panel (MRC PPU)
Format in all cases: biochemical
[1] = target: MKK6 (Homo sapiens, UniProt P52564); settings: MKK6 (Entrez MAP2K6), read-out: Residual activity (%)
Experimental: (§1) room temperature with shaking for 30 minutes. The kinase concentration in the eluates was measured by qPCR.
(§2) using ADP-GloTM assay at the MRC PPU International Centre for Kinase Profiling, University of Dundee.
(§3) Conducted by MRC PPU International Centre
(§4) Conducted by MRC PPU International Centre for […]

[2] = target: MST3 (Homo sapiens, UniProt Q9Y6E0); settings: MST3 (Entrez STK24), read-out: Residual activity (%)
Experimental: as §1, §2, §3, §4

[3] = target: SRPK1 (Homo sapiens, UniProt Q96SB4); settings: SRPK1 (Entrez SRPK1), read-out: Residual activity (%)
Experimental: as §1, §2, §3, §4

[4] = target: TTBK1 (Homo sapiens, UniProt Q5TCY1); settings: TTBK1 (Entrez TTBK1), read-out: Residual activity (%)
Experimental: as §1, §2, §3, §4

[5] = target: CDK9-Cyclin T1 (Homo sapiens, UniProt P50750); settings: CDK9-Cyclin T1 (Entrez CDK9 + CCNT1), read-out: Residual activity (%)
Chain of CDK9-Cyclin T1 (P50750 whole entry): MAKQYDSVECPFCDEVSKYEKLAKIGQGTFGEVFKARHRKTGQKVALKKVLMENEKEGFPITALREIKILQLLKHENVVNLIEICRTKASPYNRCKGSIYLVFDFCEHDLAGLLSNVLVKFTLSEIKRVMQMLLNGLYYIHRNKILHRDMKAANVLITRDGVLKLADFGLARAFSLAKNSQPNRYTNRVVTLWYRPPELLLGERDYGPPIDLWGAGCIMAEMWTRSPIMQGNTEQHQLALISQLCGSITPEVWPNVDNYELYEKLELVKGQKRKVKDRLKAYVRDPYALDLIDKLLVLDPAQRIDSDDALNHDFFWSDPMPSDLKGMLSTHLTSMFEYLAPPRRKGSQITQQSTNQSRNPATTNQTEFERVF
Chain of CDK9-Cyclin T1 (O60563 whole entry partner): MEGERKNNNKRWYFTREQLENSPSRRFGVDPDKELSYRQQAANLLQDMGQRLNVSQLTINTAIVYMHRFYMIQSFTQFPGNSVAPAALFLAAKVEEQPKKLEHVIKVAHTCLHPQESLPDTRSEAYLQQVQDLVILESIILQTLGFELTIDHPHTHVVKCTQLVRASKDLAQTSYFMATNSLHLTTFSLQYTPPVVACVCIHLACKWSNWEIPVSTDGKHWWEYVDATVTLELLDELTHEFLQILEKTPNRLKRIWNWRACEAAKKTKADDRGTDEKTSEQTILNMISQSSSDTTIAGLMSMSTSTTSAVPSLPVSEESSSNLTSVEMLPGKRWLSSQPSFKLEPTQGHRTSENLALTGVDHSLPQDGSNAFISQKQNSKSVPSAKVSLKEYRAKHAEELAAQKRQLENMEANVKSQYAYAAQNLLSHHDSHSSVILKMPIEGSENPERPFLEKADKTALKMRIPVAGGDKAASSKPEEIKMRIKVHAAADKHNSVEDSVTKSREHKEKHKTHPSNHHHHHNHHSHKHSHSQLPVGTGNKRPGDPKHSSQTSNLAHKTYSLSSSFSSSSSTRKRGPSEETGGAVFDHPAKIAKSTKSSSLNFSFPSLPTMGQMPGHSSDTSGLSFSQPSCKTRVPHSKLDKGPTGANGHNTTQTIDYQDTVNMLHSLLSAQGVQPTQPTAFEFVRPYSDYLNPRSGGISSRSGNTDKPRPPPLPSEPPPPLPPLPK
Experimental: as §1, §2, §3, §4

[6] = target: PKBb (Homo sapiens, UniProt P31751); settings: PKBb (Entrez AKT2), read-out: Residual activity (%)
Experimental: as §1, §2, §3, §4

[7] = target: DYRK1A (Homo sapiens, UniProt Q13627); settings: DYRK1A (Entrez DYRK1A), read-out: Residual activity (%)
Experimental: as §1, §2, §3, §4

[8] = target: IKKb (Homo sapiens, UniProt O14920); settings: IKKb (Entrez IKBKB), read-out: Residual activity (%)
Experimental: as §1, §2, §3, §4

[9] = target: CHK2 (Homo sapiens, UniProt O96017); settings: CHK2 (Entrez CHEK2), read-out: Residual activity (%)
Experimental: as §1, §2, §3, §4

[10] = target: S6K1 (Homo sapiens, UniProt P23443); settings: S6K1 (Entrez RPS6KB1), read-out: Residual activity (%)
Experimental: as §1, §2, §3, §4

[11] = target: MKK2 (Homo sapiens, UniProt P36507); settings: MKK2 (Entrez MAP2K2), read-out: Residual activity (%)
Experimental: as §1, §2, §3, §4

[12] = target: HIPK2 (Homo sapiens, UniProt Q9H2X6); settings: HIPK2 (Entrez HIPK2), read-out: Residual activity (%)
Chain of HIPK2 (Q9H2X6 whole entry): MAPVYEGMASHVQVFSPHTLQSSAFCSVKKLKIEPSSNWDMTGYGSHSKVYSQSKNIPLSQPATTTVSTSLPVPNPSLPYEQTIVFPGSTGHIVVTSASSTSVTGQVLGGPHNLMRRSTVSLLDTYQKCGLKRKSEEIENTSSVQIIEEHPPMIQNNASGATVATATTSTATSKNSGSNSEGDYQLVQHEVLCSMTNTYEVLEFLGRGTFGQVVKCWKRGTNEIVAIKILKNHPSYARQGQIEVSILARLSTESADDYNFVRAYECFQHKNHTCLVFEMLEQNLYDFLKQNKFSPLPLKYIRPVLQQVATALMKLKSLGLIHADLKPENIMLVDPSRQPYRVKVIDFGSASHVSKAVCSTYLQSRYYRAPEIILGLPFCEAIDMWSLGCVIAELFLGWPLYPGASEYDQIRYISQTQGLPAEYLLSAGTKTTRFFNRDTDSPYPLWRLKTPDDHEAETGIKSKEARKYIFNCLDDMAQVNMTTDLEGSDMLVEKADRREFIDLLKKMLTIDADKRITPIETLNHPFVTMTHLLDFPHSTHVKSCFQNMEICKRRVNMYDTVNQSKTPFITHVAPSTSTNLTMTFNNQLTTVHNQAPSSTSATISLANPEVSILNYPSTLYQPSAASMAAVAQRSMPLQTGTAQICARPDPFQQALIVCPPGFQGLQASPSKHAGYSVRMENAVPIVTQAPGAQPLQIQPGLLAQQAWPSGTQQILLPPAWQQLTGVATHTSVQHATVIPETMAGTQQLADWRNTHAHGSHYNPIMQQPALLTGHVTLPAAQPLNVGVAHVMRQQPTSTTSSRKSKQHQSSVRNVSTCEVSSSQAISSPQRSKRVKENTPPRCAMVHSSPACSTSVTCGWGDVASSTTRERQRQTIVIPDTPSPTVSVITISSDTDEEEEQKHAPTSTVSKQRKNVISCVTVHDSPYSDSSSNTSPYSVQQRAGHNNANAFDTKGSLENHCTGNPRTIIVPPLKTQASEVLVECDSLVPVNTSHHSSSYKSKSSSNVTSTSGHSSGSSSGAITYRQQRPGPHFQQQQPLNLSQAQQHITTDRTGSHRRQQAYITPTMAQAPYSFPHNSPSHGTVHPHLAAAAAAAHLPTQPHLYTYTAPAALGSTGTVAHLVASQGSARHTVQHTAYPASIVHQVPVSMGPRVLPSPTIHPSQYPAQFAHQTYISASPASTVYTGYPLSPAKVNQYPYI
Experimental: as §1, §2, §3, §4

[13] = target: IRR (Homo sapiens, UniProt P14616); settings: IRR (Entrez INSRR), read-out: Residual activity (%)
Chain of IRR (P14616 27-1297): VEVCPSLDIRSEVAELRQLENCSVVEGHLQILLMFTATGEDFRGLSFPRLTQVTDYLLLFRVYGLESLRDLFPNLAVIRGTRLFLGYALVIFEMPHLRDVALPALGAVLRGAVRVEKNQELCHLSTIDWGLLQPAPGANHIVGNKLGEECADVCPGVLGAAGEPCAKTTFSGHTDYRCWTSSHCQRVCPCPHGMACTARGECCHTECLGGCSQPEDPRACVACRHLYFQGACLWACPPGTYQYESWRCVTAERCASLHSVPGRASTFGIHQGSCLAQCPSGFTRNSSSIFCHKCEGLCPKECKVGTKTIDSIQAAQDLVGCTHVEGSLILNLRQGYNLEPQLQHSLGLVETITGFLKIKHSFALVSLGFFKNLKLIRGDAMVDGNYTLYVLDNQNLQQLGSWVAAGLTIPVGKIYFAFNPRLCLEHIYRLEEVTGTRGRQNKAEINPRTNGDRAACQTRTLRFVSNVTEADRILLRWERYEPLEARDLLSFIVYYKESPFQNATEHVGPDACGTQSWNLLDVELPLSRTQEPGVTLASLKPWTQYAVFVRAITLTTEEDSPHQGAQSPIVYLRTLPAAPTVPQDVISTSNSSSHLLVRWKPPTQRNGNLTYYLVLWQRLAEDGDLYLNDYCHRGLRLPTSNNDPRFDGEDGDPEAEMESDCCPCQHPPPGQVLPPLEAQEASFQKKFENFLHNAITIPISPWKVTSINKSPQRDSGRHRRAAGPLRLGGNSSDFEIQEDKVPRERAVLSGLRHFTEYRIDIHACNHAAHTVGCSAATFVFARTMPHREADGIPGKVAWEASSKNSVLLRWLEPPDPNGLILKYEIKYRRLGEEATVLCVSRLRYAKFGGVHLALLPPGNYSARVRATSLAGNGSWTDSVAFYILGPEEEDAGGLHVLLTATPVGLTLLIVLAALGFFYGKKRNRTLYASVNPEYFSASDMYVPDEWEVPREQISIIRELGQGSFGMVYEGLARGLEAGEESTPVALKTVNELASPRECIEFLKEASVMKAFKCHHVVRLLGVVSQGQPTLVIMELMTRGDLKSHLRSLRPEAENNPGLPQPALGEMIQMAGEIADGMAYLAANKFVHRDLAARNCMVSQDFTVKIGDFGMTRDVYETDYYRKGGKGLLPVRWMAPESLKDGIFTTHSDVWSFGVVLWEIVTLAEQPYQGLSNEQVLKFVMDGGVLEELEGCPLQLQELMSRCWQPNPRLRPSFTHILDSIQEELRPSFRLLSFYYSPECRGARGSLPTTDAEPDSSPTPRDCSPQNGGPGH
Experimental: as §1, §2, §3, §4

[14] = target: BTK (Homo sapiens, UniProt Q06187); settings: BTK (Entrez BTK), read-out: Residual activity (%)
Experimental: as §1, §2, §3, §4

[15] = target: FGF-R1 (Homo sapiens, UniProt P11362); settings: FGF-R1 (Entrez FGFR1), read-out: Residual activity (%)
Chain of FGF-R1 (P11362 22-822): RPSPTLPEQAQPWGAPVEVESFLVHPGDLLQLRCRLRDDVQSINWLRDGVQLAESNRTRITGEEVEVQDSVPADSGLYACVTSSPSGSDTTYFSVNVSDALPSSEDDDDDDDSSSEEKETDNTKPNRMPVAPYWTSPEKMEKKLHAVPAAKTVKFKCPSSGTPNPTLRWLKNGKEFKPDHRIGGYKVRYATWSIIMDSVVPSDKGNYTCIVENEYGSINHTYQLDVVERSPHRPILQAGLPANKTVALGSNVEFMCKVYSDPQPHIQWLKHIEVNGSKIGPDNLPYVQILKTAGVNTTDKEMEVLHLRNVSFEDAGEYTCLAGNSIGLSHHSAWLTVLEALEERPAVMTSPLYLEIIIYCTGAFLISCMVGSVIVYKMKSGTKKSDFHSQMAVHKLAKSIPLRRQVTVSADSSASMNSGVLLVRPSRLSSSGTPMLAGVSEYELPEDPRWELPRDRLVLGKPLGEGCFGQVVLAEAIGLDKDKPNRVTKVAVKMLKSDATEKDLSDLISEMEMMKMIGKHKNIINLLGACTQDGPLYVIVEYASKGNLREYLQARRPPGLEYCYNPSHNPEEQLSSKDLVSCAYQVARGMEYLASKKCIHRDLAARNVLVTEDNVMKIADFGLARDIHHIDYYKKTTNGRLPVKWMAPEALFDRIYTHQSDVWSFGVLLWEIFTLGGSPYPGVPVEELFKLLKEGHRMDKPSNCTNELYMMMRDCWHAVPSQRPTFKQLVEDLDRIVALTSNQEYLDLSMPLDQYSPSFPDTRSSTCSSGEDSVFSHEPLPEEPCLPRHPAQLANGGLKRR
Experimental: as §1, §2, §3, §4

[16] = target: TGFBR1 (Homo sapiens, UniProt P36897); settings: TGFBR1 (Entrez TGFBR1), read-out: Residual activity (%)
Experimental: as §1, §2, §3, §4

[17] = target: ERK5 (Homo sapiens, UniProt Q13164); settings: ERK5 (Entrez MAPK7), read-out: Residual activity (%)
Experimental: as §1, §2, §3, §4

[18] = target: ULK2 (Homo sapiens, UniProt Q8IYT8); settings: ULK2 (Entrez ULK2), read-out: Residual activity (%)
Experimental: as §1, §2, §3, §4

[19] = target: SYK (Homo sapiens, UniProt P43405); settings: SYK (Entrez SYK), read-out: Residual activity (%)
Experimental: as §1, §2, §3, §4

[20] = target: PINK (Tribolium castaneum, UniProt D6WMX4); settings: PINK (Entrez PINK1), read-out: Residual activity (%)
Experimental: as §1, §2, §3, §4

[21] = target: WNK1 (Homo sapiens, UniProt Q9H4A3); settings: WNK1 (Entrez WNK1), read-out: Residual activity (%)
Experimental: as §1, §2, §3, §4

[22] = target: ERK8 (Homo sapiens, UniProt Q8TD08); settings: ERK8 (Entrez MAPK15), read-out: Residual activity (%)
Experimental: as §1, §2, §3, §4

[23] = target: MELK (Homo sapiens, UniProt Q14680); settings: MELK (Entrez MELK), read-out: Residual activity (%)
Chain of MELK (Q14680 whole entry): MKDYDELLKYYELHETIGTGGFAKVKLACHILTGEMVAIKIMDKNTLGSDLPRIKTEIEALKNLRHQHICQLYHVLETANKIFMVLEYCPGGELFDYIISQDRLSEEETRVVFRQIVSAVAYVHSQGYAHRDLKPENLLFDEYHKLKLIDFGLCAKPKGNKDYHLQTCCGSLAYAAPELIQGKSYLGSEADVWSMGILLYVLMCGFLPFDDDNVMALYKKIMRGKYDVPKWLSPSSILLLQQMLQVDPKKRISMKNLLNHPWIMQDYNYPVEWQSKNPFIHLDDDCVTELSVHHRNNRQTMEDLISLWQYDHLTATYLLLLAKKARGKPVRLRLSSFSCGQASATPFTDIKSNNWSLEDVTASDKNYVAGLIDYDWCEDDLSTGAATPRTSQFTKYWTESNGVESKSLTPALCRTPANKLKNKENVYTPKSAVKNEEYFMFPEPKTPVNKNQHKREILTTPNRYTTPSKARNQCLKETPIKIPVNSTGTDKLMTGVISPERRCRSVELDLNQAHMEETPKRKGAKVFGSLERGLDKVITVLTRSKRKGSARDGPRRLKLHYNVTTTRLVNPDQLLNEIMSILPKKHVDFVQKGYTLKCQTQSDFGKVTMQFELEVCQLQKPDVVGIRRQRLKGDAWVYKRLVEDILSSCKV
Experimental: as §1, §2, §3, §4

[24] = target: PAK6 (Homo sapiens, UniProt Q9NQU5); settings: PAK6 (Entrez PAK6), read-out: Residual activity (%)
Experimental: as §1, §2, §3, §4

[25] = target: JNK2 (Homo sapiens, UniProt P45984); settings: JNK2 (Entrez MAPK9), read-out: Residual activity (%)
Experimental: as §1, §2, §3, §4

[26] = target: CK1δ (Homo sapiens, UniProt P48730); settings: CK1δ (Entrez CSNK1G2), read-out: Residual activity (%)
Experimental: as §1, §2, §3, §4

[27] = target: PKCγ (Homo sapiens, UniProt P05129); settings: read-out: Residual activity (%)
Experimental: as §1, §2, §3, §4

[28] = target: TAK1 (Homo sapiens, UniProt O43318); settings: TAK1 (Entrez MAP3K7), read-out: Residual activity (%)
Experimental: as §1, §2, §3, §4

[29] = target: CDK2-Cyclin A (Homo sapiens, UniProt P24941); settings: CDK2-Cyclin A (Entrez CDK2 + CCNA2), read-out: Residual activity (%)
Experimental: as §1, §2, §3, §4

[30] = target: PIM1 (Homo sapiens, UniProt P11309); settings: PIM1 (Entrez PIM1), read-out: Residual activity (%)
Experimental: as §1, §2, §3, §4

[31] = target: Aurora A (Homo sapiens, UniProt O14965); settings: Aurora A (Entrez AURKA), read-out: Residual activity (%)
Experimental: as §1, §2, §3, §4

COc1ccc(Nc2ncnc3c2ccn3-c2ccc(C)c(C)c2)cc1Cl [compound 36]
remaining activity at 1 µM [1]: 115% | remaining activity at 1 µM [2]: 124% | remaining activity at 1 µM [3]: 99% | remaining activity at 1 µM [4]: 68% | remaining activity at 1 µM [5]: 94% | remaining activity at 1 µM [6]: 103% | remaining activity at 1 µM [7]: 89% | remaining activity at 1 µM [8]: 75% | remaining activity at 1 µM [9]: 96% | remaining activity at 1 µM [10]: 89% | remaining activity at 1 µM [11]: 82% | remaining activity at 1 µM [12]: 90% | remaining activity at 1 µM [13]: 96% | remaining activity at 1 µM [14]: 99% | remaining activity at 1 µM [15]: 95% | remaining activity at 1 µM [16]: 87% | remaining activity at 1 µM [17]: 95% | remaining activity at 1 µM [18]: 92% | remaining activity at 1 µM [19]: 97% | remaining activity at 1 µM [20]: 73% | remaining activity at 1 µM [21]: 105% | remaining activity at 1 µM [22]: 110% | remaining activity at 1 µM [23]: 92% | remaining activity at 1 µM [24]: 90% | remaining activity at 1 µM [25]: 106% | remaining activity at 1 µM [26]: 92% | remaining activity at 1 µM [27]: 107% | remaining activity at 1 µM [28]: 91% | remaining activity at 1 µM [29]: 100% | remaining activity at 1 µM [30]: 75% | remaining activity at 1 µM [31]: 81%
